Several values for one entry are separate records, joined by “and”; a condition that tells them apart may be missing. Equal entries are not always repeated. Where two headings read alike, the source gives them in different places.

Data set [1] can be described thus: Acute toxicity test (LD50) of AZL in rats, oral gavage. Format: in vivo, rat. The settings on record: both sexes, Sprague Dawley, rat, in vivo, po, single oral gavage, improved Karber's method. The procedure:
(§1) Acute Toxicity Test (LD50) of AZL in Rats
(§2) AZL (99.10%): made by Shanghai Veterinary Research Institute, CAAS
(§3) Drug solvent: 0.5% sodium carboxymethyl cellulose
(§4) Before administration, AZL was added into 0.5% sodium carboxymethyl cellulose to prepare suspensions at different concentrations.
(§5) 1.2 Experimental animals: Specific pathogen-free (SPF) Sprague Dawley rats (50% female vs 50% male) were purchased from Shanghai Super-B&K laboratory animal Co., Ltd. (license number: SCXK (Hu): 2008-0016). Male and female rats were raised separately in the cages for more than 4 days before the experiments.
(§6) Through repeated preliminary experiments, the interval of LD0-LD100 was determined According to this interval, groups were divided and the interval between groups was determined. Eighty rats (180-220 g) were selected and randomly divided into 8 groups. Each group had 10 rats, with the same number of female and male. Drug dosage in 7 groups were 2358, 3000, 3817, 4856, 6178, 7860, and 10000 mg/kg, respectively. The rats in these groups received oral gavage once. The remaining one group was chosen as negative control group which was drenched orally with drug solvent. After administration, this group was continuously observed for 14 days to calculate the death rate.

The test system of the next data set is Sprague Dawley rats. Described as above. Format: in vivo, rat. The settings on record: oral gavage once, 14 days. The protocol: as §1, §2, §3, §4, §5, §6
A further data set deals with Eimeria tenella. Kind of data set: AZL application in preventing the coccidiosis induced by Eimeria tenella (drug in feed, infected cockerels). The settings on record: for ACI (anticoccidial index): ACI=(relative weight gain rate+survival rate)-(cecal lesion score+oocyst value); for Cecal lesion score: average lesion score in group x10; for Survival rate %: cockerels infected with 80000 sporulated oocysts of Eimeria tenella; for Relative weight gain rate %: relative to healthy control group; for Oocyst value: score from OPG ratio to infection control. Format: in vivo. The arrangement: key to ACI (anticoccidial index): ACI = (rel. weight gain + survival) − (lesion score + oocyst value); key to Cecal lesion score: average Johnson-Reid lesion score in group ×10. The procedure:
Application of AZL in Preventing the Coccidiosis Induced by Eimeria tenella
One-day-old Pudong yellow feather cockerels
If needed, it is added into the chicken compound feed without other drugs and well mixed. Two AZL concentrations are set: 5 mg/kg and 10 mg/kg.
If needed, it is added into the compound feed without other drugs and well mixed. Two drug concentrations are set: 5 mg/kg and 10 mg/kg.
4) Raw diclazuril material: If needed, it is added into the compound feed without other drugs and well mixed, with the diclazuril concentration of 1 mg/kg.
After 90 one-day-old Pudong yellow feather cockerels were raised in the healthy animal room for 14 days. They were divided into 9 groups randomly, with 10 cockerels each group. One of these groups was the healthy control group. The AZL addition groups had two different treatments (5 mg/kg and 10 mg/kg). In the groups with the addition of compounds with structural formula (IV) and (V) respectively, two concentrations were set as AZL. The diclazuril addition group at the concentration of 1 mg/kg was taken as drug control group. Besides, an infection control group was also established.
After grouping, the seven drug addition groups were fed with the feed containing specified drugs, while infection and healthy control groups were fed using pure feed without drugs. Each group drank freely. At the age of 15 day old, each cockerel in all the groups was infected with 80000 sporulated oocysts of Eimeria tenella, except for the healthy control group.
During the experimental period, food and water intake, mental state, illness and bloody stool were observed and recorded every day. At 5, 6 and 7 d after infection, the excrement in each group was collected to count the number of oocysts. The highest value was used for ACI calculation. During the experimental period, chicken death status was observed every day and the dead ones were autopsied. On the 8th day, chickens in all the groups were weighted and killed to observe and record weight gain and cecal lesion status.
1.5.1 Death rate: The percentage of the number of dead chicken because of infection to total number of experimental chicken.
1.5.2 Relative weight gain rate: The percentage of average weight gain of chickens in each infection group to that in the healthy control group
1.5.3 Cecal lesion score: It is scored by referring to the method by Johnson and Reid (Johnson J, Reid W M. Anticoccidial drugs: lesion scoring techniques in battery and floor-pan experiments with chickens.
Experimental Parasitology, 1970, 28 (1): 30-36). Cecal lesion score=average lesion score in a group×10.
1.5.4 Oocyst value: Cecal contents from all the chickens in each group were well mixed. The number of oocysts per gram (OPG) was calculated via Mc-Master's method. Ratio of oocyst number=(OPG in the negative control group or drug addition group÷OPG in the positive control group)×100% If the ratio is 0-1%, oocyst value is 0; if the ratio is 2%-25%, oocyst value is 5; if the ratio is 26%-50%, oocyst value is 10; if the ratio is 51%-75%, oocyst value is 20; if the ratio is 76%-100%, oocyst value is 40.
1.5.5 Anticoccidial index: ACI=(relative weight gain rate+survival rate)−(cecal lesion score+oocyst value)

For the next data set, the system named is rats. The note with it: acute oral, improved Karber's method; cited from earlier work.
The mark [2] stands for this setting: drug concentration in feed 5 mg/kg.
[3] abbreviates: drug concentration in feed 10 mg/kg.
The mark [4] stands for this setting: drug concentration in feed 1 mg/kg.

With `CC(=O)Nc1ccc(Oc2ccc(-n3ncc(=O)[nH]c3=O)cc2C)cc1` [AZL, 2-{3-methyl-4-(4′-acetamidophenoxy)phenyl}-1,2,4-triazine-3,5(2H,4H)^− diketone], the LD50 at 14 days was 4740 mg/kg in data set [1] (14 days observation, read-out: LD50) and 3750 to 5990 mg/kg in data set [1] (read-out: 95% confidence limit of LD50). Also, the Death rate % in the data set with Sprague Dawley rats (dosage 2358 mg/kg) turned out to be 0%; in the data set on Sprague Dawley rats (dosage 3000 mg/kg), 30%; with Sprague Dawley rats (dosage 3817 mg/kg), 50%; with Sprague Dawley rats (dosage 4856 mg/kg) it was 50%; with Sprague Dawley rats (dosage 6178 mg/kg), 70%; with Sprague Dawley rats (dosage 7860 mg/kg), 70%. Further, the Death rate % in the data set with Sprague Dawley rats (dosage 10000 mg/kg) is listed as 90%. For the same compound, the “ACI (anticoccidial index)” value is 180.8 in the data set with Eimeria tenella (setting [2]); 189 and 189.1 with Eimeria tenella (setting [3]); 189 with Eimeria tenella (drug concentration in feed 10 mg/kg, listed as compound with structural formula (I)). Moreover, the Cecal lesion score in the data set with Eimeria tenella (setting [2]) and in the data set with Eimeria tenella (setting [3]) was 5 each time. In addition, the Survival rate % in the data set with Eimeria tenella (setting [2]) and in the data set on Eimeria tenella (setting [3]) was 100% throughout. In addition, the “Relative weight gain rate %” value in the data set with Eimeria tenella (setting [2]) was 90.8%; in the data set on Eimeria tenella (setting [3]) it was 99.1%. The Oocyst value in the data set with Eimeria tenella (setting [2]) and with Eimeria tenella (setting [3]) was 5 throughout.
Consider `Cc1cc(-n2ncc(=O)[nH]c2=O)ccc1Oc1ccc([N+](=O)[O-])cc1` [Compound with structural formula IV, 2-{3-methyl-4-(4′-nitrophenoxy)phenyl}-1,2,4-triazine-3,5(2H,4H)-diketone, reference compound], for which, in the data set with Eimeria tenella (setting [2]), the “ACI (anticoccidial index)” value is 182.2, the Cecal lesion score was found to be 5, the Survival rate % is 100% and the “Relative weight gain rate %” value is listed as 92.2%. Also, the Oocyst value in the data set on Eimeria tenella (setting [2]) was 5. Moreover, in the data set on Eimeria tenella (setting [3]), the “ACI (anticoccidial index)” value was 190.0, the Cecal lesion score is given as 5, the Survival rate % was found to be 100% and the “Relative weight gain rate %” value stood at 95.0%. Further, in the data set on Eimeria tenella (setting [3]), the Oocyst value is recorded as 0. Besides, in the data set on rats, the “95% confidence limit of LD50” value is 644 to 916 mg/kg and the “median lethal dose (LD50)” value is on record as 768 mg/kg.
In the case of `Cc1cc(-n2ncc(=O)[nH]c2=O)ccc1Oc1ccc(N)cc1` [Compound with structural formula V, 2-{3-methyl-4-(4′-aminophenoxy)phenyl}-1,2,4-triazine-3,5(2H,4H)^− diketone], in the data set with Eimeria tenella (setting [2]), the “ACI (anticoccidial index)” value worked out at 151.5, the Cecal lesion score came to 15, the Survival rate % was 100% and the “Relative weight gain rate %” value is recorded as 81.5%. In addition, the Oocyst value in the data set on Eimeria tenella (setting [2]) amounted to 15. Moreover, in the data set with Eimeria tenella (setting [3]), the “ACI (anticoccidial index)” value was 158.1, the Cecal lesion score is listed as 10, the Survival rate % is 100% and the “Relative weight gain rate %” value worked out at 83.1%. Further, in the data set on Eimeria tenella (setting [3]), the Oocyst value amounted to 15.
With `N#CC(c1ccc(Cl)cc1)c1c(Cl)cc(-n2ncc(=O)[nH]c2=O)cc1Cl` (centres unmarked) [Diclazuril, diclazuril, reference compound], in the data set with Eimeria tenella (setting [4]), the “ACI (anticoccidial index)” value is reported as 182.1, the Cecal lesion score is listed as 5, the Survival rate % is listed as 100% and the “Relative weight gain rate %” value stood at 92.1%. In the data set with Eimeria tenella (setting [4]), the Oocyst value amounted to 5.

As a reminder, the LD50 is the dose at which mortality reaches 50%.
